Format in all cases: cell-based, human
The test system of assay [1] is A549 cell line. Nature of the assay: Anticancer drug sensitivity test, A549 cell line. The following applies: culturing 48 hours. The procedure:
(§1) The A549 cell line or each of the A549/SN-38-1 to 6 was suspended in 10% FBS/Ham's F-12, and the resultant suspension was inoculated into a 96-well microplate, followed by culturing at 5% CO2 and 37° C. overnight. Thereafter, a solution of an anticancer drug in 10% FBS/Ham's F-12 (50 μL) was added to each of the wells, followed by culturing at 5% CO2 and 37° C. for 48 hours. After completion of culturing, the number of viable cells was counted by use of a viable cell counting reagent [TetraColor ONE (trade name), product of Seikagaku Corporation] according to the attached instruction manual. […] “Relative resistance value” is obtained by dividing the IC50 for an A549/SN-38 cell line by the IC50 for the A549 cell line. The greater the relative resistance value, the higher the level of acquired resistance.

The test system of assay [2] is A549/SN-38-1 cell line. Briefly: Anticancer drug sensitivity test, A549/SN-38-1. The following applies: for IC50: A549/SN-38-1, culturing 48 hours; for Relative resistance value: IC50 for A549/SN-38-1 divided by IC50 for A549. The procedure: (§2) Human non-small cell lung cancer A549 cell line was subcultured at 5% CO2 and 37° C. by use of a Ham's F-12 medium containing 10% FBS, 100 U/mL of penicillin, and 100 μg/mL of streptomycin (10% FBS/Ham's F-12). SN-38-resistant A549 cell lines were selected by subculturing the A549 cell line in a medium for two months while the concentration of SN-38 contained in the medium was increased in a stepwise manner (4 to 10 ng/mL). Subsequently, the resultant SN-38-resistant A549 cell lines were subjected to cloning by means of limiting dilution, to thereby establish six cloned SN-38-resistant A549 cell lines (A549/SN-38-1 to 6).
as §1

The subject of assay [3] is A549/SN-38-2 cell line. Briefly: Anticancer drug sensitivity test, A549/SN-38-2. The following applies: for IC50: A549/SN-38-2, culturing 48 hours; for Relative resistance value: IC50 for A549/SN-38-2 divided by IC50 for A549. On the procedure: as §2, §1
The test system of assay [4] is A549/SN-38-3 cell line. Nature of the assay: Anticancer drug sensitivity test, A549/SN-38-3. The following applies: for IC50: A549/SN-38-3, culturing 48 hours; for Relative resistance value: IC50 for A549/SN-38-3 divided by IC50 for A549. On the procedure: as §2, §1
In assay [5] the test system is A549/SN-38-4 cell line. Briefly: Anticancer drug sensitivity test, A549/SN-38-4. The following applies: for IC50: A549/SN-38-4, culturing 48 hours; for Relative resistance value: IC50 for A549/SN-38-4 divided by IC50 for A549. The procedure:
as §2, §1

Assay [6] concerns A549/SN-38-5 cell line. Briefly: Anticancer drug sensitivity test, A549/SN-38-5. The following applies: for IC50: A549/SN-38-5, culturing 48 hours; for Relative resistance value: IC50 for A549/SN-38-5 divided by IC50 for A549. The procedure:
as §2, §1

Assay [7] has as its system A549/SN-38-6 cell line. Briefly: Anticancer drug sensitivity test, A549/SN-38-6. To be noted: for IC50: A549/SN-38-6, culturing 48 hours; for Relative resistance value: IC50 for A549/SN-38-6 divided by IC50 for A549. The procedure: as §2, §1
Assay [8] concerns A549/SN-38 cell lines. Nature of the assay: Anticancer drug sensitivity test, A549/SN-38 cell lines as a group. To be noted: BCRP substrates.
The subject of assay [9] is A549/SN-38-4 cell line. Briefly: Amount of anticancer drug accumulated in A549/SN-38 cell line. To be noted: SN-38 300 ng/mL, 37° C., 60 minutes.

≈ marks a conversion by molar mass, not a printed value. Read-outs that look alike come from different tables or passages of the source.

As usually defined, the IC50 is the concentration needed to halve the response being measured. With `N.N.[Cl][Pt][Cl]` [Cisplatin], the IC50 in assay [1] was determined as 18.6 µg/mL; in [2], 15.1 µg/mL; in assay [3], 16.5 µg/mL; in assay [4] it was 15.1 µg/mL; in assay [5] it was 17.0 µg/mL; in [6], 15.9 µg/mL. The half-maximal inhibitory concentration (IC50) in assay [7] stood at 16.8 µg/mL. Besides, the Relative resistance value entry in [2] is on record as “(0.8)”; in [3] it was “(0.9)”; in assay [4] it was “(0.8)”; in assay [5], “(0.9)”; in assay [6] it was “(0.9)”; in assay [7], “(0.9)”.
Consider `COc1cccc2c1C(=O)c1c(O)c3c(c(O)c1C2=O)C[C@@](O)(C(=O)CO)C[C@@H]3O[C@H]1C[C@H](N)[C@H](O)[C@H](C)O1` [Doxorubicin], for which the half-maximal inhibitory concentration (IC50) in [1] (Homo sapiens, read-out: IC50) amounted to 0.1 µg/mL (≈ 0.184 µM); in [2] (Homo sapiens, read-out: IC50), 0.19 µg/mL (≈ 0.35 µM); in [3] (Homo sapiens, read-out: IC50), 0.14 µg/mL (≈ 0.258 µM); in assay [4] (Homo sapiens, read-out: IC50) it was 0.12 µg/mL (≈ 0.221 µM); in assay [5] (Homo sapiens, read-out: IC50) it was 0.22 µg/mL (≈ 0.405 µM); in assay [6] (Homo sapiens, read-out: IC50), 0.057 µg/mL (≈ 0.105 µM). The IC50 in [7] (Homo sapiens, read-out: IC50) was 0.049 µg/mL (≈ 0.0902 µM). The Relative resistance value entry is on record as “(1.9)” in assay [2]; “(1.4)” in assay [3]; “(1.3)” in assay [4]; “(2.3)” in [5]; “(0.6)” in assay [6]; “(0.5)” in assay [7].
For the compound `COc1cc([C@@H]2c3cc4c(cc3[C@@H](O[C@@H]3O[C@@H]5CO[C@@H](C)O[C@H]5[C@H](O)[C@H]3O)[C@H]3COC(=O)[C@H]23)OCO4)cc(OC)c1O` [Etoposide], the IC50 in assay [1] (Homo sapiens, read-out: IC50) turned out to be 0.9 µg/mL (≈ 1.53 µM); in [2] (Homo sapiens, read-out: IC50) it was 0.27 µg/mL (≈ 0.459 µM); in [3] (Homo sapiens, read-out: IC50), 0.8 µg/mL (≈ 1.36 µM); in assay [4] (Homo sapiens, read-out: IC50), 1.6 µg/mL (≈ 2.72 µM); in assay [5] (Homo sapiens, read-out: IC50), 3.5 µg/mL (≈ 5.95 µM); in assay [6] (Homo sapiens, read-out: IC50), 2.3 µg/mL (≈ 3.91 µM). Further, the IC50 in [7] (Homo sapiens, read-out: IC50) turned out to be 1 µg/mL (≈ 1.7 µM). Further, the Relative resistance value result in assay [2] is “(0.3)”; in [3] it was “(1.0)”; in assay [4], “(1.9)”; in [5], “(4.0)”; in assay [6], “(2.7)”; in assay [7], “(1.1)”.
Take `Nc1ccn([C@@H]2O[C@H](CO)[C@@H](O)C2(F)F)c(=O)n1` [Gemcitabine]: the IC50 was determined as 0.009 µg/mL (≈ 0.0342 µM) in [1] (Homo sapiens, read-out: IC50); 0.0039 µg/mL (≈ 0.0148 µM) in assay [2] (Homo sapiens, read-out: IC50); 0.0053 µg/mL (≈ 0.0201 µM) in assay [3] (Homo sapiens, read-out: IC50); 0.004 µg/mL (≈ 0.0152 µM) in [4] (Homo sapiens, read-out: IC50); 0.0032 µg/mL (≈ 0.0122 µM) in assay [5] (Homo sapiens, read-out: IC50); 0.004 µg/mL (≈ 0.0152 µM) in assay [6] (Homo sapiens, read-out: IC50). In addition, the IC50 in assay [7] (Homo sapiens, read-out: IC50) came out at 0.004 µg/mL (≈ 0.0152 µM). Besides, the Relative resistance value entry in [2] was “(0.4)”; in assay [3], “(0.6)”; in assay [4], “(0.4)”; in assay [5], “(0.4)”; in assay [6], “(0.4)”; in assay [7], “(0.4)”.
Turning to `CO[C@@]12[C@H](COC(N)=O)C3=C(C(=O)C(C)=C(N)C3=O)N1C[C@@H]1N[C@@H]12` [Mitomycin C], the IC50 in [1] was determined as 0.11 µg/mL (≈ 0.329 µM); in [2], 0.13 µg/mL (≈ 0.389 µM); in assay [3] it was 0.11 µg/mL (≈ 0.329 µM); in assay [4] it was 0.0029 µg/mL (≈ 0.00867 µM); in assay [5] it was 0.15 µg/mL (≈ 0.449 µM); in assay [6], 0.11 µg/mL (≈ 0.329 µM). Besides, the IC50 in [7] is 0.047 µg/mL (≈ 0.141 µM). Moreover, the Relative resistance value result in assay [2] is “(1.2)”; in assay [3], “(1.1)”; in [4], “(0.3)”; in assay [5], “(1.4)”; in assay [6], “(1.0)”; in assay [7] it was “(0.4)”.
With `CC(=O)O[C@H]1C(=O)[C@@]2(C)[C@H]([C@H](OC(=O)c3ccccc3)[C@]3(O)C[C@H](OC(=O)[C@H](O)[C@@H](NC(=O)c4ccccc4)c4ccccc4)C(C)=C1C3(C)C)[C@]1(OC(C)=O)CO[C@@H]1C[C@@H]2O` [Paclitaxel], the half-inhibitory concentration (IC50) is 0.0049 µg/mL (≈ 0.00574 µM) in assay [1] (Homo sapiens, read-out: IC50); 0.0098 µg/mL (≈ 0.0115 µM) in assay [2] (Homo sapiens, read-out: IC50); 0.012 µg/mL (≈ 0.0141 µM) in assay [3] (Homo sapiens, read-out: IC50); 0.013 µg/mL (≈ 0.0152 µM) in assay [4] (Homo sapiens, read-out: IC50); 0.014 µg/mL (≈ 0.0164 µM) in assay [5] (Homo sapiens, read-out: IC50); 0.0061 µg/mL (≈ 0.00714 µM) in assay [6] (Homo sapiens, read-out: IC50). Also, the half-inhibitory concentration (IC50) in [7] (Homo sapiens, read-out: IC50) was 0.0071 µg/mL (≈ 0.00831 µM). In addition, the Relative resistance value result in [2] is “(2.0)”; in [3], “(2.4)”; in assay [4] it was “(2.7)”; in [5], “(2.8)”; in assay [6], “(1.2)”; in [7], “(1.4)”.
Regarding `CCc1c2c(nc3ccc(O)cc13)-c1cc3c(c(=O)n1C2)COC(=O)[C@]3(O)CC` [SN-38, 7-ethyl-10-hydroxycamptothecin], the IC50 is 0.013 µg/mL (≈ 0.0331 µM) in assay [1]; 0.12 µg/mL (≈ 0.306 µM) in assay [2]; 0.10 µg/mL (≈ 0.255 µM) in assay [3]; 0.13 µg/mL (≈ 0.331 µM) in assay [4]; 0.10 µg/mL (≈ 0.255 µM) in assay [5]; 0.10 µg/mL (≈ 0.255 µM) in assay [6]. The half-maximal inhibitory concentration (IC50) in assay [7] was 0.10 µg/mL (≈ 0.255 µM). The Relative resistance value entry in assay [2] was “(9.2)”; in assay [3] it was “(7.5)”; in assay [4], “(9.7)”; in assay [5], “(7.7)”; in assay [6], “(7.7)”; in assay [7], “(7.4)”. Moreover, the “Resistance of A549/SN-38 cell lines to the anticancer drug” value in [8] is “particularly strong resistance”. Moreover, the “Amount of SN-38 accumulated in A549/SN-38-4 relative to A549 cell line” value in [9] is listed as “about ⅕”.
`O=C1c2c(O)ccc(O)c2C(=O)c2c(NCCNCCO)ccc(NCCNCCO)c21` [mitoxantrone]: the “Resistance of A549/SN-38 cell lines to the anticancer drug” value in assay [8] is “particularly strong resistance”.

For the origin of these results see patent US7371773B2, “Breast cancer resistance protein (BCRP) inhibitor” (Kabushiki Kaisha Yakult Honsha, priority 2003, dated 2008).
